Among the data in patent US9617240B2 (TEIJIN PHARMA LIMITED, priority 2013, dated 2017) are IC50 values, retold here.

The assay concerns the target T1, oxidase type xanthine oxidase (derived from buttermilk) (Bos taurus, UniProt P80457).
T1 construct: oxidase type xanthine oxidase (derived from buttermilk, supplied by Calbiochem Novabiochem Corp.); purchased Calbiochem Novabiochem Corp; host or cells: buttermilk (natural source)
Briefly: Xanthine oxidase inhibitory activity (absorbance change at 290 nm). Type of assay: biochemical. The settings on record: xanthine substrate, 100 mM phosphate buffer, absorbance at 290 nm for 5 minutes; read-out: Inhibitory Activity (50% inhibitory concentration with respect to oxidase type xanthine oxidase). On the procedure:
The xanthine oxidase inhibitory activity was measured for the compounds synthesized according to the above Examples.
After a test compound was dissolved in DMSO (manufactured by Sigma Co.) so that the concentration is 20 mM, the test compound was prepared and used at a desired concentration at the time of use.
The evaluation of the xanthine oxidase inhibitory activity of the compounds of the present invention was conducted by partially modifying the method described in the literature (Method Enzymatic Analysis, 1, 521-522, 1974). The present evaluation is based on the oxidase type xanthine oxidase inhibitory activity evaluation. That is, a xanthine (manufactured by Sigma Co.) solution prepared at 10 mM in advance using a 20 mM sodium hydroxide solution was adjusted to 30 μM using a 100 mM phosphate buffer solution, and 75 μL/well of each solution was added into a 96-well plate. Aliquots (1.5 μL/well) of each test sample, which was diluted with DMSO so that the concentration is 100 times the final concentration, were added into a 96-well plate, and after mixing, the absorbance at 290 nm was measured by a microplate reader SPECTRA MAX Plus 384 (manufactured by Molecular Devices, LLC). Subsequently, oxidase type xanthine oxidase (derived from buttermilk, supplied by Calbiochem Novabiochem Corp.) was prepared at 30.6 mU/mL using a 100 mM phosphate buffer solution and 73.5 μL/well of each solution was added. Immediately after mixing, the change in absorbance at 290 nm was measured for 5 minutes. The enzyme activity when DMSO was used instead of a test compound solution was defined as 100%, the inhibitory rate of the test compounds was calculated and the 50% inhibitory concentration with respect to oxidase type xanthine oxidase was calculated by fitting to the dose-response curve.
Note that the symbols (+, ++, +++) in the table represent inhibitory activity values as shown below.

T1 sequence (P80457 whole entry): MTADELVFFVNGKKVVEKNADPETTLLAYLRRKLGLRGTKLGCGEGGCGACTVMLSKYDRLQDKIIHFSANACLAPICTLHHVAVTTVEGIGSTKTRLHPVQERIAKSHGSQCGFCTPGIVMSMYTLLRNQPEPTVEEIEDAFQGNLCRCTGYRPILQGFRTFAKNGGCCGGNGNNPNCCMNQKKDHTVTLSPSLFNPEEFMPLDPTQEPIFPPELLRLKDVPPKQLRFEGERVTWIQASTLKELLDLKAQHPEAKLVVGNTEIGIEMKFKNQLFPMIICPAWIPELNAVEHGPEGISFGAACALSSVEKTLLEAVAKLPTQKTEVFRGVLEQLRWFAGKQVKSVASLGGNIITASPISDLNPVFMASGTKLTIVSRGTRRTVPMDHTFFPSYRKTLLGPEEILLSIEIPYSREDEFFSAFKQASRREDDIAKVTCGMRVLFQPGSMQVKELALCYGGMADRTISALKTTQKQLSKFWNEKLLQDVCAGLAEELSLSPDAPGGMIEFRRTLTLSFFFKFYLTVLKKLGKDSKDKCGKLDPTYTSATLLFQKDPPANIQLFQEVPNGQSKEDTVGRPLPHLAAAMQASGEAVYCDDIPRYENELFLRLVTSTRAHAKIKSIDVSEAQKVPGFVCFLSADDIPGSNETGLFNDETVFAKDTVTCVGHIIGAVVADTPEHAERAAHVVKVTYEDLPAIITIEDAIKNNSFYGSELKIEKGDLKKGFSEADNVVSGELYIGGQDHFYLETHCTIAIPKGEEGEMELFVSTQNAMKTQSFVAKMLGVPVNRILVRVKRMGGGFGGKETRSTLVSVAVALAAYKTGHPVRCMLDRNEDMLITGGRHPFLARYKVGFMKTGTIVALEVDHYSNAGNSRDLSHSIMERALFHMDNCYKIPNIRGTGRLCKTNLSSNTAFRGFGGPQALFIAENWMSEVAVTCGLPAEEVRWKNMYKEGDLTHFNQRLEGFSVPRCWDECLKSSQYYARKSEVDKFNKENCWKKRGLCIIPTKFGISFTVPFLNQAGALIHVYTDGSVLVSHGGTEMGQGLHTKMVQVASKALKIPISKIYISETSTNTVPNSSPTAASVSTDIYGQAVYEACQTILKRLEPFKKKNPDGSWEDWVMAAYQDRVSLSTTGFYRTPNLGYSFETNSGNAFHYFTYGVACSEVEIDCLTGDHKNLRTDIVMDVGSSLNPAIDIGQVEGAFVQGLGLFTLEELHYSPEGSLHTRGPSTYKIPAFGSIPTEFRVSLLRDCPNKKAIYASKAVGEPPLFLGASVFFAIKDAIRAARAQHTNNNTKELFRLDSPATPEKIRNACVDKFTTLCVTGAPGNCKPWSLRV

As to `Cc1ccc(F)c(-c2cnc(-n3cc(C(=O)O)c(N)n3)cc2C#N)c1` [Compound 104, 3-amino-1-[4-cyano-5-(2-fluoro-5-methylphenyl)pyridin-2-yl]-1H-pyrazole-4-carboxylic acid], the IC50 lay in the range of 1 to 5 nM.
The figure for `N#Cc1cc(-n2cc(C(=O)O)cn2)ncc1-c1ccc(F)cc1` [Compound 29, 1-[4-cyano-5-(4-fluorophenyl)pyridin-2-yl]-1H-pyrazole-4-carboxylic acid] is 1 to 5 nM; for `COc1ccc(-c2cnc(-n3cc(C(=O)O)cn3)cc2C#N)cc1` [Compound 2, 1-[4-cyano-5-(4-methoxyphenyl)pyridin-2-yl]-1H-pyrazole-4-carboxylic acid] it is 1 to 5 nM; for `COc1cccc(-c2cnc(-n3cc(C(=O)O)c(N)n3)cc2C#N)c1` [Compound 102, 3-amino-1-[4-cyano-5-(3-methoxyphenyl)pyridin-2-yl]-1H-pyrazole-4-carboxylic acid] it is 1 to 5 nM.
On to `N#Cc1cc(-n2cc(C(=O)O)c(N)n2)ncc1-c1ccc(F)cc1` [Compound 99, 3-amino-1-[4-cyano-5-(4-fluorophenyl)pyridin-2-yl]-1H-pyrazole-4-carboxylic acid], for which the IC50 was in the range of 1 to 5 nM.
As for `Cc1cc(-c2ncc(-n3cc(C(=O)O)cn3)cc2C#N)ccc1F` [Compound 82, 1-[5-cyano-6-(4-fluoro-3-methylphenyl)pyridin-3-yl]-1H-pyrazole-4-carboxyic acid], the IC50 was ≥ 10 nM.
With `Cc1ccc(-c2cnc(-n3cc(C(=O)O)cn3)cc2C#N)cc1` [Compound 14, 1-[4-cyano-5-(4-methylphenyl)pyridin-2-yl]-1H-pyrazole-4-carboxylic acid] the figure was 1 to 5 nM; with `CCCOc1cccc(-c2cnc(-n3cc(C(=O)O)cn3)cc2C#N)c1` [Compound 31, 1-[4-cyano-5-(3-propoxyphenyl)pyridin-2-yl]-1H-pyrazole-4-carboxylic acid], 1 to 5 nM.
For `CC(C)c1cccc(-c2cnc(-n3cc(C(=O)O)cn3)cc2C#N)c1` [Compound 48, 1-{4-cyano-5-[3-(propane-2-yl)phenyl]pyridine-2-yl}-1H-pyrazole-4-carboxylic acid], the IC50 lay in the range of 1 to 5 nM.
Consider `N#Cc1cc(-n2cc(C(=O)O)cn2)cnc1-c1ccccc1` [Compound 75, 1-(5-cyano-6-phenylpyridin-3-yl)-1H-pyrazole-4-carboxylic acid], for which the IC50 was ≥ 10 nM.
As to `N#Cc1cc(-n2cc(C(=O)O)cn2)ncc1-c1ccccc1F` [Compound 5, 1-[4-cyano-5-(2-fluorophenyl)pyridin-2-yl]-1H-pyrazole-4-carboxylic acid], the IC50 fell in the range of 1 to 5 nM.
Consider `N#Cc1cc(-n2cc(C(=O)O)cn2)ncc1-c1ccc(OC(F)(F)F)cc1` [Compound 44, 1-{4-cyano-5-[4-(trifluoromethoxy)phenyl]pyridin-2-yl}-1H-pyrazole-4-carboxylic acid], for which the IC50 fell in the range of 1 to 5 nM.
The figure for `N#Cc1cc(-n2cc(C(=O)O)c(N)n2)ncc1-c1ccccc1F` [Compound 98, 3-amino-1-[4-cyano-5-(2-fluorophenyl)pyridin-2-yl]-1H-pyrazole-4-carboxylic acid] is 1 to 5 nM.
For the compound `COc1cccc(-c2cnc(-n3cc(C(=O)O)cn3)cc2C#N)c1F` [Compound 19, 1-[4-cyano-5-(2-fluoro-3-methoxyphenyl)pyridin-2-yl]-1H-pyrazole-4-carboxylic acid], the IC50 is 1 to 5 nM.
For `CCOc1cccc(-c2ccc(-n3cc(C(=O)O)cn3)nc2C#N)c1` [Compound 93, 1-[6-cyano-5-(3-ethoxyphenyl)pyridin-2-yl]-1H-pyrazole-4-carboxylic acid], the IC50 was ≥ 10 nM.
With `Cc1cccc(-c2ccc(-n3cc(C(=O)O)cn3)nc2C#N)c1` [Compound 92, 1-[6-cyano-5-(3-methylphenyl)pyridin-2-yl]-1H-pyrazole-4-carboxylic acid] the figure was ≥ 10 nM; with `Cc1ccc(-c2ncc(-n3cc(C(=O)O)cn3)cc2C#N)cc1F` [Compound 83, 1-[5-cyano-6-(3-fluoro-4-methylphenyl)pyridin-3-yl]-1H-pyrazole-4-carboxylic acid], 5 to 10 nM; with `N#Cc1cc(-n2cc(C(=O)O)cn2)cnc1-c1ccc(F)cc1F` [Compound 77, 1-[5-cyano-6-(2,4-difluorophenyl)pyridin-3-yl]-1H-pyrazole-4-carboxylic acid], ≥ 10 nM.
With `N#Cc1cc(-n2cc(C(=O)O)cn2)cnc1-c1ccccc1F` [Compound 76, 1-[5-cyano-6-(2-fluorophenyl)pyridin-3-yl]-1H-pyrazole-4-carboxylic acid], the IC50 is ≥ 10 nM.
With `N#Cc1nc(-n2cc(C(=O)O)cn2)ccc1-c1ccccc1` [Compound 85, 1-(6-cyano-5-phenylpyridin-2-yl)-1H-pyrazole-4-carboxylic acid], the IC50 was ≥ 10 nM.
With `CCOc1ccccc1-c1cnc(-n2cc(C(=O)O)cn2)cc1C#N` [Compound 3, 1-[4-cyano-5-(2-ethoxyphenyl)pyridin-2-yl]-1H-pyrazole-4-carboxylic acid], the IC50 lay within 5 to 10 nM.
Turning to `CSc1ccc(-c2cnc(-n3cc(C(=O)O)cn3)cc2C#N)cc1` [Compound 63, 1-{4-cyano-5-[4-(methylsulfanyl)phenyl]pyridin-2-yl}-1H-pyrazole-4-carboxylic acid], the IC50 lay within 1 to 5 nM.
The figure for `COCc1ccc(-c2cnc(-n3cc(C(=O)O)cn3)cc2C#N)cc1` [Compound 55, 1-{4-cyano-5-[4-(methoxymethyl)phenyl]pyridin-2-yl}-1H-pyrazole-4-carboxylic acid] is 1 to 5 nM.
For `Cc1nn(-c2cc(C#N)c(-c3ccccc3)cn2)cc1C(=O)O` [Compound 26, 1-(4-cyano-5-phenylpyridin-2-yl)-3-methyl-1H-pyrazole-4-carboxylic acid], the IC50 was ≥ 10 nM.
With `COc1cccc(F)c1-c1ccc(-n2cc(C(=O)O)cn2)nc1C#N` [Compound 96, 1-[6-cyano-5-(2-fluoro-6-methoxyphenyl)pyridin-2-yl]-1H-pyrazole-4-carboxylic acid] the figure was ≥ 10 nM; with `Cc1cc(-c2cnc(-n3cc(C(=O)O)c(N)n3)cc2C#N)ccc1F` [Compound 106, 3-amino-1-[4-cyano-5-(4-fluoro-3-methylphenyl)pyridin-2-yl]-1H-pyrazole-4-carboxylic acid], 1 to 5 nM.
For the compound `N#Cc1cc(-n2cc(C(=O)O)cn2)ncc1-c1cccc(C(F)(F)F)c1` [Compound 45, 1-{4-cyano-5-[3-(trifluoromethyl)phenyl]pyridin-2-yl}-1H-pyrazole-4-carboxylic acid], the IC50 lay in the range of 5 to 10 nM.
Take `Cc1ccsc1-c1cnc(-n2cc(C(=O)O)cn2)cc1C#N` [Compound 22, 1-[4-cyano-5-(3-methylthiophen-2-yl)pyridin-2-yl]-1H-pyrazole-4-carboxylic acid]: the IC50 was 1 to 5 nM.
As to `N#Cc1cc(-n2cc(C(=O)O)cn2)ncc1-c1ccccc1OC(F)(F)F` [Compound 9, 1-{4-cyano-5-[2-(trifluoromethoxy)phenyl]pyridin-2-yl]-1H-pyrazole-4-carboxylic acid], the IC50 was ≥ 10 nM.
As for `Cc1cc(-c2cnc(-n3cc(C(=O)O)cn3)cc2C#N)ccc1F` [Compound 37, 1-[4-cyano-5-(4-fluoro-3-methylphenyl)pyridin-2-yl]-1H-pyrazole-4-carboxylic acid], the IC50 lay in the range of 1 to 5 nM.
